According to patent US20140309184A1, “METHODS AND COMPOSITIONS FOR THE TREATMENT OF OVARIAN CANCER” (UNIVERSITY OF SOUTH ALABAMA, priority 2011, published 2014):

What was measured:
[1] = test system: OV90 OCSC (CD44+/CD24-); experiment: Matrigel invasion assay of CD44+/CD24- ovarian cancer stem cells; format: cell-based; details: 2.5 μM, 24 hours
Experimental: (§1) Fluorescence-activated cell sorting (FACS) was performed in order to sort into 2 distinct phenotypes: 1) ovarian cancer stem cell phenotype (OCSC=CD44+/CD24−) and 2) non-ovarian cancer stem cells (non-OCSC=all other phenotypes). Each ovarian cancer phenotype was evaluated for invasion properties using the Matrigel invasion assay for the SKOV3 and OV90 cell lines. Matrigel™-coated chamber (BD Pharmingen) were rehydrated for 2 hours in humidified tissue culture incubator at 37° C., 5% CO2. After rehydration, the medium was carefully removed without disturbing the layer of Matrigel Matrix on the membrane. The cell suspension was prepared in serum-free medium containing 10^5 cells/mL. The lower chambers of the 24-well plate were filled with 750 μL serum-free medium containing 10 μg/mL fibronectin as a chemotactic factor. […] The cells were then fixed, stained and counted. Numbers of invaded cells at least 10 consecutive fields were enumerated and their average was calculated. Data are expressed as the number of migrating cells per field. Three groups were evaluated: 1) non-OCSC; 2) OCSC; 3) OCSC plus BMS833923 treatment.
(§2) One aggressive property of cancer includes the ability to invade tissues locally. Therefore, the ability of Ovarian Cancer Stem Cells (OCSC) with CD44+/CD24− phenotype to invade via Matrigel invasion assay was evaluated. […]

[2] = test system: SKOV3 OCSC (CD44+/CD24-); experiment: as above; format: cell-based; details: 2.5 μM, 24 hours
Experimental: as §1, §2

[3] = test system: SKOV3 cells; experiment: MTS cell survival with BMS-833923 plus chemotherapy, Calcusyn combination index; format: cell-based
Experimental: An MTS in vitro assay was performed using chemotherapy agents commonly used for ovarian cancer (carboplatin, paclitaxel, gemcitabine, topotecan and liposomal doxorubicin) with or without BMS-833923. Ovarian cancer cells ES2, SKOV3, OV90 and TOV112D were seeded at a density of 4,000 cells/well in 96-well tissue culture plates. The following day, fresh medium was added to each well and treated with IC50 concentrations of BMS-833923 as well as the aforementioned chemotherapies and kept at 37° C. in a humidified 5% CO2 atmosphere. Every 24 hr, 20 μl/well of MTS reagent were added in 96 well plates and stored in 37° C. incubator for about 3 hr followed by absorbance reading at 490 nm. The assay was carried out up to 72 hrs at various concentrations described herein.
With a cross-diagonal multidrug treatment design, the combination index (CI) was calculated to determine mathematical synergy using the median effect method per Calcusyn software (Biosoft, Ferguson, Mo.). This software utilizes multiple drug dose-effect calculations using the Median Effect methods (Chou T. C., et al., Trends Pharmacol. Sci. 4, 450-454). […] The fraction of cells affected (Fa) by carboplatin and BMS-833923 was used to calculate dose response curves and the CI. Statistically Calcusyn quantifies phenomena such as synergism vs. additive effects as well as inhibition (antagonism). Calcusyn software defines synergy as a CI value<1 with the extent of synergism stratified as follows: Possible Synergy: 1.0-0.91; Moderate Synergy: […]; and Clear Synergy: 0.7-0.3. A CI=1 may be indicative of additivity; a CI>1 may be indicative of antagonism.
Combination indices were calculated to determine mathematical synergy using the median effect method per Calcusyn software (Biosoft, Ferguson, Mo.) as described above. Monolayers of SKOV3 cells were contacted with various chemotherapeutic agents, and BMS-833923 in combination with various chemotherapeutic agents. The chemotherapeutic agents included Carboplatin, Taxol™, Gemzar™, Topotecan (Hycamtim™), and Doxil™. The percentage survival of the contacted SKOV3 cells was measured over 72 hours. Synergistic effects were calculated statistically using Calcusyn™ Software. A combination index (CI) less than 1 indicates synergy; a CI equal to 1 indicates additivity; a CI greater than 1 indicated antagonism.
Combination indices were calculated to determine mathematical synergy using the median effect method per Calcusyn software (Biosoft, Ferguson, Mo.) as described above. […] Per prior definitions this represents Clear Synergy defined as CI<0.7. This level of synergy would result in a 2- to 14-fold reduction of carboplatin dose required with the addition of BMS-833923. (Table 5 and FIG. 9).
The dose reduction index (DRI) was determined for experimental values using the Calcusyn software package, with the relative CI and the fraction affected to determine the relative reduction in a dose to achieve similar effects with a single agent (Table 6).

[4] = test system: A2780/CP70 cells; experiment: Carboplatin IC50 with and without BMS-833923 in platinum resistant cell line; format: cell-based; details: A2780/CP70, addition of BMS-833923 at 5 μM
Experimental: Considering the synergy described above and that the Hedgehog pathway is associated with cancer stem cell properties. In the effect of BMS-833923 plus carboplatin in two isogenic ovarian cancer cell lines specifically designed to evaluate platinum resistance mechanisms: A2780 (platinum sensitive) & A2780/CP70 (platinum resistant). Each cell line was evaluated to determine the IC50 dose of carboplatin to ensure a discernable difference in platinum treatment could be determined (FIG. 11A). The A2780/CP70 cell line required a 4-fold increase in carboplatin to reach IC50 (A2780/CP70=400 μM; A2780=100 μM). […] (FIG. 11B and FIG. 11C).

[5] = MTD for combination therapy; format: in vivo; details: in vivo; BMS-833923 + carboplatin given together; previously demonstrated
Text: Treatment with BMS-833923 appeared to have little effect on the growth of A2780 xenografts in vivo.

CNCc1ccc(C)c(NC(=O)c2ccc(Nc3nc(-c4ccccc4)c4ccccc4n3)cc2)c1 [BMS-833923, N-{2-methyl-5-[(methylamino)methyl]phenyl}-4-[(4-phenylquinazolin-2-yl)amino]benzamide]
invasive properties of OCSC (number of cells invaded) [1]: lower than non-OCSCs
invasive properties of OCSC (number of cells invaded) [2]: lower than non-OCSCs
BMS-833923 DRI ([3]; fraction affected 16.6%): 2.314
BMS-833923 single agent dose to achieve the fraction affected ([3]; fraction affected 16.6%): 9.2573 µM
BMS-833923 DRI ([3]; fraction affected 29.1%): 3.223
BMS-833923 single agent dose to achieve the fraction affected ([3]; fraction affected 29.1%): 12.8916 µM
BMS-833923 DRI ([3]; fraction affected 38.4%): 3.120
BMS-833923 single agent dose to achieve the fraction affected ([3]; fraction affected 38.4%): 15.6024 µM
BMS-833923 DRI ([3]; fraction affected 41.8%): 3.330
BMS-833923 single agent dose to achieve the fraction affected ([3]; fraction affected 41.8%): 16.6516 µM
reduction of platinum needed to achieve the same cell death [4]: 10 fold
MTD [5]: 100 mg/kg
